Values of other authors in patent publication US11007152B2, “Pharmaceutical composition comprising amorphous lenalidomide and an antioxidant” (Synthon B.V., priority 2015, dated 2021).

solubility in water: slightly soluble
Structure (SMILES): Nc1cccc2c1CN(C1CCC(=O)NC1=O)C2=O (racemic) [Lenalidomide, (RS)-3-(4-Amino-1-oxo 1,3-dihydro-2H-isoindol-2-yl)piperidine-2,6-dione]
